Measured values as given in patent US20200087258A1, “INHIBITOR OF CITRATE TRANSPORTER AND THEIR USE IN THERAPY” (Eternygen GmbH, priority 2017, published 2020).

What was measured:
INDY [1] = molecular target: T1, INDY (Homo sapiens, UniProt Q86YT5); assay: 14C-citrate uptake in HepG2 cells endogenously expressing INDY (NaCT); assay type: cell-based; settings: endogenous INDY
Experimental: (§1) The compound was obtained by screening of a library containing more than 50,000 lead-like compounds and fragments. The library was tested using a functional citrate uptake assay with HEK293 cells overexpressing recombinant human INDY. The following hit confirmation was conducted in the same assay system. To confirm the activity of selected compounds on the target INDY another cell assay was conducted. In this assay system citrate uptake was measured using HepG2 cells which endogenously express INDY. Furthermore selectivity of selected compounds was tested for two other transporters in different assay systems. The first transporter was the glutamate transporter GLT-1 tested in a glutamate uptake assays using HEK293 cells overexpressing recombinant human GLT-1. The second transporter was the glucose transporter GLUT1 tested in a glucose uptake assay using Huh-7 cells which endogenously express GLUT1. Compounds were considered to be selective with an at least 5-fold higher activity for INDY than for the other two transporters.
(§2) Cells were maintained in cell medium using cell culture grade flasks (CellSTACK Corning, 500 cm2 dishes or T175 depending on cell number). The selection antibiotic and G418 (800 μg/ml) was added during cultivation but not for seeding into assay plates. For splitting, cells were washed with PBS (w/o Ca2+, Mg2+, phenol red) and detached with Trypsin/EDTA. Throughout cultivation cells were kept sub-confluent. Detached cells (50,000 cells/well) were seeded in 96-well plates (white, clear bottom from Corning #655098) and incubated over night before usage in the assay. The following media were used. For HEK293 cells expressing INDY MEM (PAA)+10% FCS+1×P/S+2 mM L-Gln; for HEK293 cells expressing GLT-1 DMEM (Gibco)+10% FCS+400 µg/ml G418; for Huh7 cells DMEM (Gibco)+10% FCS+2 mM L-Gin (+1×P/S); for HepG2 cells MEM (PAA, Cat # E15-024)+10% FCS+2 mM L-Gin+1×NEAA+1 mM Na-Pyruvat
(§3) The following assay buffers for the particular uptake reaction were used. Citrate uptake buffer: 120 mM NaCl, 5.4 mM KCl, 0.8 mM MgSO4, 5 mM glucose, 1.8 mM CaCl2, 25 mM Hepes, 25 mM MES, pH 6.5. Glutamate uptake buffer: HBSS, 1 mM CaCl2, 1 mM MgCl2, 20 mM Hepes pH 7.4. Glucose uptake buffer: 25 mM Hepes+25 mM MES pH 7.4, 120 mM NaCl, 5.4 mM KCl, 1.8 mM CaCl2, 0.8 mM MgSO4.
INDY mediated citrate uptake was also determined in HepG2 cells. To determine the uptake of ^14C labelled citrate into cells, HepG2 cells endogenously expressing human NaCT were used. (Gopal et al. 2007 Am J Physiol Gastrointest Liver Physiol 292).
HepG2 cells were seeded into white clear-bottom 96-well plates (50,000/well) coated with collagen and incubated at 37° C. for 16-24 hours. After that plates were washed once with assay buffer using automated washing/LS 405 Selectors, BioTek ending with a buffer volume of 40 μl. Then 5 μl of compound solution in assay buffer was added and incubated for 5 min at 37° C. in cell incubator, HERA cell Heraeus. Afterwards 10 μl of substrate 14C-citrate (10 nM) were added and incubated for another 90 min at 37° C. in cell incubator, HERAcell. Then plates were washed 3× with 200 μl buffer and […] cell lysis induced by adding 50 μl ice-cold NaOH (100 mM). Plates were incubated for 25 min at RT on a plate shaker and afterwards 200 μl scintillation fluid was added and incubated for 15 min on a plate shaker at RT and for another 15 min without shaking at RT. Plates were measured using a TopCount system. As a positive control 5 mM citrate was applied. It is possible to use this assay also in analogy in a 384-well plate format.

INDY [2] = molecular target: T1, INDY; assay: 14C-citrate uptake in HEK293 cells overexpressing recombinant human INDY (NaCT); assay type: cell-based; design: expressed in transfected cells; host or cells: HEK293
Experimental: as §1, §2, §3
INDY mediated citrate uptake was determined in HEK293 cells. To determine the uptake of ^14C labelled citrate into cells, HEK293 cells over-expressing human NaCT were used. Cloning of human NaCT was done in analogy as described in Birkenfeld et al. (Birkenfeld et al., 2011, Cell Metabolism 14, 184-195, 2011).
Human NaCT HEK293 cells were seeded into white clear-bottom 96-well plates (50,000/well) in the presence of 4 μg/ml Poly-D-Lysine and incubated at 37° C. for 16-24 hours. On the days of the assay the plates were washed once with assay buffer using automated washing/LS 405 Selectors, BioTek ending with a buffer volume of 40 μl. Then 5 μl of compound solution in assay buffer was added and incubated for 5-30 min at 37° C. in cell incubator, HERA cell Heraeus. Afterwards 10 μl of substrate 14C-citrate ([…]/[…] per well) were added and incubated for another 20-90 min at 37° C. in cell incubator, HERAcell. Then plates were washed twice with 200 μl ice-cold assay buffer and residual volume was discarded. For cell lysis 50 μl ice-cold NaOH (100 mM) was added and incubated for 15 minutes at RT on a plate shaker. Finally, 200 μl scintillation fluid (scintillator OptiPhase Supermix, Perkin Elmer) was added. After 15 min incubation at RT without shaking, plates were measured using a TopCount reader system (Perkin Elmer). As a positive control 10 mM citrate was applied. It is possible to use this assay also in analogy in a 384-well plate format.

T1 sequence (Q86YT5 whole entry, the tested form may be a part): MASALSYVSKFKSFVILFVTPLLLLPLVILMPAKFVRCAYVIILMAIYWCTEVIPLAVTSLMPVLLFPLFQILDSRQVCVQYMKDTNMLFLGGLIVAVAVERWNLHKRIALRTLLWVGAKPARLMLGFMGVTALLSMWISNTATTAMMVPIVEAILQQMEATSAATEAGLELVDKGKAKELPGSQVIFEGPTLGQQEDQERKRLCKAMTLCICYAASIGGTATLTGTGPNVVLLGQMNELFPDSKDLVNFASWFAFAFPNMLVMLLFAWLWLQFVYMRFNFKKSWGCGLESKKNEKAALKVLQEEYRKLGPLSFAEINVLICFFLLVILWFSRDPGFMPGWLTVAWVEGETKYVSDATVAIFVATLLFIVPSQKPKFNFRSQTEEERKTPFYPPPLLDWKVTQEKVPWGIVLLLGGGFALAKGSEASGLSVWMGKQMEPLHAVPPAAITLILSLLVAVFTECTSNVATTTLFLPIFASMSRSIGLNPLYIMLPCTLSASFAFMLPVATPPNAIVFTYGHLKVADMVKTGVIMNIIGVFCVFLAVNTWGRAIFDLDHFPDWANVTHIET

IC50 (INDY [1]) [µM] | IC50 (INDY [2]) [µM] | SMILES
> 50 | – | O=S(=O)(/C=C/c1ccccc1)N1CCC(CNCc2ccccc2F)CC1 [Example 10, [(2-fluorophenyl)methyl]({1-[(E)-phenylethenesulfonyl]piperidin-4-yl}methyl)amine]
2.7 | 2.9 | COc1ccccc1CNC(=O)C1CCN(S(=O)(=O)/C=C/c2ccccc2)CC1 [Example 15, N-[(2-methoxyphenyl)methyl]-1-[(E)-2-phenylethenesulfonyl]piperidine-4-carboxamide]
1.5 | 1.4 | COc1cccc(S(=O)(=O)N2CCC(C(=O)NCc3ccccc3F)CC2)c1 [Example 16, N-[(2-fluorophenyl)methyl]-1-(3-methoxybenzenesulfonyl)piperidine-4-carboxamide]
3.4 | 5 | COc1ccccc1S(=O)(=O)N1CCC(C(=O)NCc2ccccc2F)CC1 [Example 19, N-[(2-fluorophenyl)methyl]-1-(2-methoxybenzenesulfonyl)piperidine-4-carboxamide]
> 20 | 7.4 | O=C(NCc1cccc(F)c1)C1CCN(S(=O)(=O)/C=C/c2ccccc2)CC1 [Example 21, N-[(3-fluorophenyl)methyl]-1-[(E)-2-phenylethenesulfonyl]piperidine-4-carboxamide]
7 | 3.4 | O=C(NCc1cccc(F)c1F)C1CCN(S(=O)(=O)/C=C/c2ccccc2)CC1 [Example 22, N-[(2,3-difluorophenyl)methyl]-1-[(E)-2-phenylethenesulfonyl]piperidine-4-carboxamide]
> 20 | 4.6 | O=C(NCc1cc(F)ccc1F)C1CCN(S(=O)(=O)/C=C/c2ccccc2)CC1 [Example 23, N-[(2,5-difluorophenyl)methyl]-1-[(E)-2-phenylethenesulfonyl]piperidine-4-carboxamide]
4.2 | 9.3 | CC(C)Oc1ccc(S(=O)(=O)N2CCC(C(=O)NCc3ccccc3F)CC2)cc1 [Example 24, N-[(2-fluorophenyl)methyl]-1-[4-(propan-2-yloxy)benzenesulfonyl]piperidine-4-carboxamide]
15.9 | 5.2 | O=C(NCc1ccccc1F)C1CCN(S(=O)(=O)c2ccc3c(c2)OCO3)CC1 [Example 26, 1-(2H-1,3-benzodioxole-5-sulfonyl)-N-[(2-fluorophenyl)methyl]piperidine-4-carboxamide]
2.4 | 3 | O=C(NCc1ccccc1F)C1CCN(S(=O)(=O)c2ccc(Cl)cc2)CC1 [Example 27, 1-(4-chlorobenzenesulfonyl)-N-[(2-fluorophenyl)methyl]piperidine-4-carboxamide]
15.7 | > 20 | O=C(NCc1ccccc1F)C1CCN(S(=O)(=O)c2ccc(Cl)c(Cl)c2)CC1 [Example 28, 1-(3,4-dichlorobenzenesulfonyl)-N-[(2-fluorophenyl)methyl]piperidine-4-carboxamide]
0.8 | 0.8 | O=C(NCc1ccccc1F)C1CCN(S(=O)(=O)c2ccc(-c3ccccc3)cc2)CC1 [Example 30, 1-{[1,1′-biphenyl]-4-sulfonyl}-N-[(2-fluorophenyl)methyl]piperidine-4-carboxamide]
6.7 | 5.1 | O=C(NCc1ccccc1Br)C1CCN(S(=O)(=O)/C=C/c2ccccc2)CC1 [Example 32, N-[(2-bromophenyl)methyl]-1-[(E)-2-phenylethenesulfonyl]piperidine-4-carboxamide]
1 | 0.5 | CC(C)(C)c1cccc(S(=O)(=O)N2CCC(C(=O)NCc3ccccc3F)CC2)c1 [Example 33, 1-(3-tert-butylbenzenesulfonyl)-N-[(2-fluorophenyl)methyl]piperidine-4-carboxamide]
4.5 | 1 | CCc1ccc(S(=O)(=O)N2CCC(C(=O)NCc3ccccc3F)CC2)cc1 [Example 34, 1-(4-ethylbenzenesulfonyl)-N-[(2-fluorophenyl)methyl]piperidine-4-carboxamide]
2.9 | 1.5 | Cc1ccc(S(=O)(=O)N2CCC(C(=O)NCc3ccccc3F)CC2)cc1 [Example 35, N-[(2-fluorophenyl)methyl]-1-(4-methylbenzenesulfonyl)piperidine-4-carboxamide]
1 | 1 | O=C(NCc1ccccc1F)C1CCN(S(=O)(=O)c2ccc(I)cc2)CC1 [Example 36, N-[(2-fluorophenyl)methyl]-1-(4-iodobenzenesulfonyl)piperidine-4-carboxamide]
0.8 | 0.3 | COc1ccccc1CNC(=O)C1CCN(S(=O)(=O)c2ccc(C(C)(C)C)cc2)CC1 [Example 38, 1-(4-tert-butylbenzenesulfonyl)-N-[(2-methoxyphenyl)methyl]piperidine-4-carboxamide]
2.1 | 0.2 | CC(C)(C)c1ccc(S(=O)(=O)N2CCC(C(=O)NCc3ccccc3Cl)CC2)cc1 [Example 39, 1-(4-tert-butylbenzenesulfonyl)-N-[(2-chlorophenyl)methyl]piperidine-4-carboxamide]
3.2 | 1.8 | O=C(NCc1ccccc1O)C1CCN(S(=O)(=O)/C=C/c2ccccc2)CC1 [Example 41, N-[(2-hydroxyphenyl)methyl]-1-[(E)-2-phenylethenesulfonyl]piperidine-4-carboxamide]
0.4 | 0.3 | O=C(NCc1ccccc1F)C1CCN(S(=O)(=O)c2ccc(Cl)cc2Cl)CC1 [Example 43, 1-(2,4-dichlorobenzenesulfonyl)-N-[(2-fluorophenyl)methyl]piperidine-4-carboxamide]
9.3 | 9.3 | CC(C)(C)c1ccc(S(=O)(=O)N2CC(C(=O)NCc3ccccc3F)C2)cc1 [Example 46, 1-(4-tert-butylbenzenesulfonyl)-N-[(2-fluorophenyl)methyl]azetidine-3-carboxamide]
0.7 | 0.7 | O=C(NCc1ccccc1F)C1CCN(S(=O)(=O)c2ccc3c(c2)OC(F)(F)O3)CC1 [Example 47, 1-[(2,2-difluoro-2H-1,3-benzodioxol-5-yl)sulfonyl]-N-[(2-fluorophenyl)methyl]piperidine-4-carboxamide]
2.7 | 6.4 | O=C(NCc1ccccn1)C1CCN(S(=O)(=O)c2ccc(OC(F)(F)F)cc2)CC1 [Example 58, N-[(pyridin-2-yl)methyl]-1-[4-(trifluoromethoxy)benzenesulfonyl]piperidine-4-carboxamide]
